# Where a name gives a salt, the structure may show the parent alone.
# Biological target: T1, Human RORγ Ligand Binding Domain (RORγ-LBD) (Homo sapiens, UniProt P51449)
# T1 construct: made in house; host or cells: E. coli BL21(DE3), modified pET21a
# T1 sequence (P51449 263-518): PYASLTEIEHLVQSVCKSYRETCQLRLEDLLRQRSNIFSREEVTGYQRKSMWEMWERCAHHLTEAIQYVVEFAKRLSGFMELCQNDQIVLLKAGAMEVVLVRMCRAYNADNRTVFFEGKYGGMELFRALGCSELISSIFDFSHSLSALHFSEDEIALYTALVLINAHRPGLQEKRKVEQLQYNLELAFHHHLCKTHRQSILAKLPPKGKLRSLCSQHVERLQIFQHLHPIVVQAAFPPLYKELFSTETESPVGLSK
# Test: Dual Fluorescence Energy Transfer (FRET) assay, RORγ-LBD / SRC1(2) co-activator peptide interaction
# Format: biochemical
# Conditions: mean of multiple test results if tested more than once; read-out: pIC50 in the dual FRET assay (converted)
# From the text: This assay is based on the knowledge that nuclear receptors interact with cofactors (transcription factors) in a ligand dependent manner. RORγ is a typical nuclear receptor in that it has an AF2 domain in the ligand binding domain (LBD) which interacts with co-activators.
# The assay measures ligand-mediated interaction of the co-activator peptide with the purified bacterial-expressed RORγ ligand binding domain (RORγ-LBD) to indirectly assess ligand binding. RORγ has a basal level of interaction with the co-activator SRC1(2) in the absence of ligand, thus it is possible to find ligands that inhibit or enhance the RORγ/SRC1(2) interaction.
# Human RORγ Ligand Binding Domain (RORγ-LBD) was expressed in E.coli strain BL21(DE3) as an amino-terminal polyhistidine tagged fusion protein. DNA encoding this recombinant protein was sub-cloned into a modified pET21a expression vector (Novagen).
# Approximately 50 g E. coli cell pellet was resuspended in 300 mL of lysis buffer (30 mM imidazole pH 7.0 and 150 mM NaCl). Cells were lysed by sonication and cell debris was removed by centrifugation for 30 minutes at 20,000 g at 4° C. […] The clarified lysate was loaded onto a column (XK-26) packed with ProBond Nickel Chelating resin (Invitrogen), pre-equilibrated with 30 mM imidazole pH 7.0 and 150 mM NaCl. After washing to baseline absorbance with the equilibration buffer, the column was developed with a gradient from 30 to 500 mM imidazole pH 7.0. Column fractions containing the RORγ-LBD protein were pooled and concentrated to a volume of 5 mls. The concentrated protein was loaded onto a Superdex 200 column pre-equilibrated with 20 mM Tris-CI pH 7.2 and 200 mM NaCl. The fractions containing the desired RORγ-LBD protein were pooled together.
# Purified RORγ-LBD was buffer exchanged by exhaustive dialysis [3 changes of at least 20 volumes (>8000x)] against PBS [100mM NaPhosphate, pH 8 and 150mM NaC1]. […] The modified protein was distributed into aliquots, frozen on dry ice and stored at −80° C. The biotinylated RORγ-LBD was subjected to mass spectrometric analysis to reveal the extent of modification by the biotinylation reagent.
# An appropriate amount of Europium labeled Streptavidin was then added to the biotinylated SRC1(2) solution in a tube to give a final concentration of 10 nM. The tube was inverted gently and incubated for 15 minutes at room temperature. Twenty-fold excess biotin from the 10 mM stock solution was added and the tube was inverted gently and incubated for 10 minutes at room temperature.
# Preparation of APC labeled RORγ-LBD: biotinylated RORγ-LBD solution was prepared by adding an appropriate amount of biotinylated RORγ-LBD from the stock solution to a buffer containing 10 mM of freshly added DTT from solid to give a final concentration of 40 nM. An appropriate amount of APC labeled Streptavidin was then added to the biotinylated RORγ-LBD solution in a tube to give a final concentration of 20 nM. The tube was inverted gently and incubated for 15 minutes at room temperature. Twenty-fold excess biotin from the 10 mM stock solution was then added and the tube was inverted gently and incubated for 10 minutes at room temperature.
# The reaction mixtures were incubated for 5 minutes. […] The plates were incubated for lhr and then read on ViewLux in Lance mode for EU/APC.
row,Compound,IC50 [nM]
1,"Cc1c(CN2CCN(C(=O)C3CCCC3)[C@@H](C)C2)cc(F)cc1NC(=O)c1cccc(C#N)c1 [Example 66, (S)-3-cyano-N-(3-((4-(cyclopentanecarbonyl)-3-methylpiperazin-1-yl)methyl)-5-fluoro-2-methylphenyl)benzamide]",~39.8
2,"Cc1c(CN2CCN(C(=O)C3CCCC3)[C@@H](C)C2)cc(Cl)cc1NC(=O)c1cccc(C#N)c1 [Example 193, (S)-N-(5-chloro-3-((4-(cyclopentanecarbonyl)-3-methylpiperazin-1-yl)methyl)-2-methylphenyl)-3-cyanobenzamide, trifluoroacetic acid salt]",~63.1
